Measured values published in paper PMC8322648, “Brevibacillin 2V Exerts Its Bactericidal Activity via Binding to Lipid II and Permeabilizing Cellular Membranes” (Frontiers in Microbiology, 2021).

How the values were obtained:
[1] = Carboxyfluorescein leakage assay, DOPC LUVs with 0.1% Lipid II; details: peptide 100 nM; for membrane permeabilization (CF leakage), Lipid II containing LUVs: LUVs 5 μM, DOPC plus 0.1% Lipid II, 25 mM Tris-HCl, 150 mM NaCl, pH 7.5, ex 492/em 515 nm
Protocol: (§1) LUVs that contain DOPC or DOPC plus 0.1% Lipid II were prepared for a carboxyfluorescein (CF) leakage assay. The lipids were dried by a nitrogen stream and followed under vacuum for 2 h. After that, the lipids were hydrated by adding 25 mm Tris-HCl, 150 mm NaCl, and pH 7.5 containing 50 mm CF. The suspensions were frozen and thawed 10 times, followed by extrusion through 200nm membrane filters (Whatman Nuclepore, Track-Etch Membranes) 10 times. The excess dye was removed by loading vesicles on a spin column (Sephadex G50) for 2 min at 500 × g. Subsequently, the vesicles were diluted to 5 μm, and the brevibacillins-induced release of CF from the vesicles was monitored by measuring the increase in fluorescence intensity. The maximum fluorescence was reached by adding 10 μl of 20% Triton X-100. A Cary Eclipse Fluorescence Spectrophotometer (Agilent, United States) was used to determine the changes of fluorescence signals, and the excitation wavelength and emission wavelength were adjusted to 492 nm and 515 nm, respectively.

[2] = test system: S. aureus ATCC15975 (MRSA) membrane; assay: DiSC3(5) membrane potential assay; type: cell-based, Staphylococcus aureus; details: 2 × MIC; for rank order of membrane disruption capacity: correlates with calculated hydrophobicity
Protocol: Staphylococcus aureus ATCC15975 (MRSA) was grown to an OD600 of 0.8. The culture was pelleted at 5,000 × g for 5 min and washed three times in 10 mm HEPES with 10 mm glucose (pH 7.2). The cell density was normalized to an OD600 of 0.2, loaded with 2 μm DiSC3(5) dye, and incubated for 20 min in the dark for probe fluorescence to stabilize. After incubation, KCl was added to the cell suspension at a final concentration of 100 mm. Subsequently, the cell suspension was added to a 96-well microplate and incubation for 5 min; after that, antibiotics were added at a final concentration of 2 × MIC. Fluorescence was monitored for 25 min, with the antibiotics added after ~20 s. The excitation and emission wavelengths on the fluorescence spectrometer were adjusted to 622 nm and 670 nm, respectively. Representative examples from three technical replicates are shown.

[3] = test system: human red blood cells; details: 2021, cited from earlier work; for HC50, 50% human blood cell hemolysis concentration: Figure 1, ref Zhao et al.
Excerpt: (§2) A vast number of bacterial non-ribosomally produced peptides (NRPs) have shown strong antimicrobial activity against pathogenic bacteria ([Cochrane et al., 2014]; [Cociancich et al., 2015]; [Hamamoto et al., 2015]; [Ling et al., 2015]; [Süssmuth and Mainz, 2017]). Lipo-tridecapeptides, a class of NRPs, show strong antimicrobial activity against Gram-positive pathogens, including antibiotic-resistant Staphylococcus aureus and Enterococcus spp. ([Barsby et al., 2001], [2006]; [Yang et al., 2016]; [Wu et al., 2019]; [Zhao et al., 2021]). However, many of these lipo-tridecapeptides have shown high ... || Figure 1 Structures of brevibacillins. The red color indicates the more hydrophobic amino acid residues of brevibacillin V, brevibacillin and brevibacillin I relative to brevibacillin 2V. MIC, the minimum inhibitory concentration against Staphylococcus aureus (MRSA). HC50, the 50% human blood cell hemolysis concentration. CC50, the 50% cell (HepG2) toxicity concentration.

[4] = test system: HepG2; details: Figure 1, ref Zhao et al., 2021; cited from earlier work
Excerpt: as §2

[5] = ref Zhao et al., 2021; cited from earlier work
[6] = test system: membrane of Gram-positive bacteria; details: ref Yang et al., 2017; cited from earlier work
Excerpt: A vast number of bacterial non-ribosomally produced peptides (NRPs) have shown strong antimicrobial activity against pathogenic bacteria ([Cochrane et al., 2014]; [Cociancich et al., 2015]; [Hamamoto et al., 2015]; [Ling et al., 2015]; [Süssmuth and Mainz, 2017]). Lipo-tridecapeptides, a class of NRPs, show strong antimicrobial activity against Gram-positive pathogens, including antibiotic-resistant Staphylococcus aureus and Enterococcus spp. ([Barsby et al., 2001], [2006]; [Yang et al., 2016]; [Wu et al., 2019]; [Zhao et al., 2021]). However, many of these lipo-tridecapeptides have shown high ...

[7] = test system: Staphylococcus aureus (MRSA); details: ref Zhao et al., cited from earlier work; for MIC: Staphylococcus aureus (MRSA), Figure 1, 2021; for MIC (molar): strain not given, compared with CF leakage concentration, 2021 (MIC source, b3)
Excerpt: Figure 1 Structures of brevibacillins. The red color indicates the more hydrophobic amino acid residues of brevibacillin V, brevibacillin and brevibacillin I relative to brevibacillin 2V. MIC, the minimum inhibitory concentration against Staphylococcus aureus (MRSA). HC50, the 50% human blood cell hemolysis concentration. CC50, the 50% cell (HepG2) toxicity concentration. […] LUVs-based CF leakage assay is widely used in the studies of the antibiotic mode of action ([Hasper et al., 2004]; [Smith et al., 2008]; [Slootweg et al., 2015]; [Bakhtiary et al., 2017]). Disruption of the vesicle membrane by certain compounds releases CF from the LUVs into the extra-vesicular milieu resulting in increased fluorescence signal (Figure ...

[8] = Carboxyfluorescein leakage assay, LUVs of pure DOPC; details: peptide 100 nM; pure DOPC LUVs 5 μM; 25 mM Tris-HCl, 150 mM NaCl, pH 7.5; ex 492/em 515 nm
Protocol: as §1

[9] = Pyrene-labeled Lipid II fluorescence quenching assay; type: binding; details: 50 μM DOPC LUVs with 0.5 mol % pyrene-labeled Lipid II, 20°C, ex 350 nm
Protocol: The effects of antibiotics on pyrene-labeled Lipid II were measured using 50 μm DOPC-based large unilamellar vesicles (LUVs) containing 0.5 mol % pyrene-labeled Lipid II ([Breukink et al., 2003]). Briefly, the LUVs were added to a quartz cuvette and titrated with nisin, brevibacillin, or brevibacillin 2V with stirring at 20°C. The fluorescence spectra were recorded between 360 and 600 nm (λex350 nm) using a Cary Eclipse Fluorescence Spectrophotometer (Agilent, United States).

[10] = ref Zhao et al., 2021; cited from earlier work; remark: listed apart in the source
[11] = 31P solid-state NMR of Lipid II in liposomes; type: binding; details: combined ssNMR, CD and ITC assays
Protocol: Multi-lamellar vesicles of DOPC doped with 2 mol % Lys-Lipid II in buffer (20 mm HEPES, 100 mm NaCl, and pH = 8) were collected by centrifugation (60,000 × g) and loaded into 3.2 mm ssNMR rotors. For 3.2 mm rotors, we used 200 nmol of antibiotic with 100 nmol of Lipid II. The 1D ^31P ssNMR experiments were performed at 500 MHz (^1H frequency) magnetic field using 10 kHz magic angle spinning (MAS) at 270 K sample temperature.

Brevibacillin
percentage of CF leakage, comparison in words ([1]; LUVs with 0.1% Lipid II): higher percentage of CF leakage than brevibacillin 2V | membrane permeabilization (CF leakage), Lipid II containing LUVs [1]: rapid membrane permeabilization | speed of membrane permeabilization [2]: appeared to act faster than brevibacillin 2V and the well-known pore-forming antibiotic nisin | rank order of membrane disruption capacity [2]: brevibacillin I > brevibacillin > brevibacillin V > brevibacillin 2V | HC50, 50% human blood cell hemolysis concentration [3]: 25.1 ± 0.1 mg/L | CC50, 50% cell (HepG2) toxicity concentration [4]: 5.21 ± 0.01 µg/mL | rank order of calculated hydrophobicity [5]: brevibacillin I > brevibacillin > brevibacillin V > brevibacillin 2V | membrane permeabilization [6]: can permeabilize the membrane of Gram-positive bacteria | MIC [7]: 2 µg/mL | MIC (molar) [7]: 1.3 µM | membrane disruption (CF leakage), LUVs lacking Lipid II [8]: still caused rapid disruption of membrane | excimer fluorescence (about 490 nm) [9]: no excimer fluorescence could be detected | pyrene monomer fluorescence [9]: decreased the monomer fluorescence

Brevibacillin 2V
membrane permeabilization (CF leakage), Lipid II containing LUVs [1]: rapid membrane permeabilization | rank order of membrane disruption capacity [2]: brevibacillin I > brevibacillin > brevibacillin V > brevibacillin 2V | hemolytic activity ([3]; 128 mg/L, ref Zhao et al.): no hemolytic activity | HC50, 50% human blood cell hemolysis concentration [3]: > 128 mg/L | CC50, 50% cell (HepG2) toxicity concentration [4]: 45.49 ± 0.24 µg/mL | cytotoxicity relative to the other brevibacillins [4]: much lower cytotoxicity than the other brevibacillins | rank order of calculated hydrophobicity [5]: brevibacillin I > brevibacillin > brevibacillin V > brevibacillin 2V | MIC [7]: 2 µg/mL | MIC (molar) [7]: 1.3 µM | membrane disruption (CF leakage), LUVs lacking Lipid II [8]: still caused rapid disruption of membrane | stability in human plasma [10]: good stability in human plasma | Lipid II binding site [11]: binds to the GlcNAc-MurNAc moiety and/or the pentapeptide of Lipid II | excimer fluorescence (about 490 nm) [9]: no excimer fluorescence could be detected | pyrene monomer fluorescence [9]: decreased the monomer fluorescence
